Measurements taken from ChEMBL document CHEMBL1201862, “PubChem BioAssay data set” (2004).
Active and inactive are the calls of the source.

Legend:
[1] = molecular target: T1, Tyrosine-protein phosphatase non-receptor type 22 (Homo sapiens, UniProt Q9Y2R2); format: functional
T1 sequence (Q9Y2R2 whole entry): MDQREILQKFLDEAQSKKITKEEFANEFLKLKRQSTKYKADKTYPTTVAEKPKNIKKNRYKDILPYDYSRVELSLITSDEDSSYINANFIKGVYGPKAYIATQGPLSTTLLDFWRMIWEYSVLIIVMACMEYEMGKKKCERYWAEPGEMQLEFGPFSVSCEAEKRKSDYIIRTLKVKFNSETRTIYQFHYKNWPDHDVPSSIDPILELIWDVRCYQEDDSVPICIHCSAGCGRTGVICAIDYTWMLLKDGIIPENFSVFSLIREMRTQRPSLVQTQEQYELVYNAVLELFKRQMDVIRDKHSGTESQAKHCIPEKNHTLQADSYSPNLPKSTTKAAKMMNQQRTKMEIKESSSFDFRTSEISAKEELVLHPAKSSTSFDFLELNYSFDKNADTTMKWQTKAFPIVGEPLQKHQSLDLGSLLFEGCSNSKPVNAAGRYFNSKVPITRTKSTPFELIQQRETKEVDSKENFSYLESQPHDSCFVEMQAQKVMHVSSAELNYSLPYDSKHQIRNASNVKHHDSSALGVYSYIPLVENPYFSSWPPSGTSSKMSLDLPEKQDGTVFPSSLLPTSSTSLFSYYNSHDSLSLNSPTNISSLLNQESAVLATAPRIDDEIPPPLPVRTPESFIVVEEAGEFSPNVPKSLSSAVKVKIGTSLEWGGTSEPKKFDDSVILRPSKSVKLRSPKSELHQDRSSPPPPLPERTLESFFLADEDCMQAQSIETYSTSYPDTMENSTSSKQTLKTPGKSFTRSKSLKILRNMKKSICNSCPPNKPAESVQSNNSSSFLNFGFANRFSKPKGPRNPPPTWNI

fMet-Leu-Phe receptor = molecular target: T2, fMet-Leu-Phe receptor (Homo sapiens, UniProt P21462); test: formyl peptide receptor binders – dose response (AID 519); format: functional
T2 sequence (P21462 whole entry): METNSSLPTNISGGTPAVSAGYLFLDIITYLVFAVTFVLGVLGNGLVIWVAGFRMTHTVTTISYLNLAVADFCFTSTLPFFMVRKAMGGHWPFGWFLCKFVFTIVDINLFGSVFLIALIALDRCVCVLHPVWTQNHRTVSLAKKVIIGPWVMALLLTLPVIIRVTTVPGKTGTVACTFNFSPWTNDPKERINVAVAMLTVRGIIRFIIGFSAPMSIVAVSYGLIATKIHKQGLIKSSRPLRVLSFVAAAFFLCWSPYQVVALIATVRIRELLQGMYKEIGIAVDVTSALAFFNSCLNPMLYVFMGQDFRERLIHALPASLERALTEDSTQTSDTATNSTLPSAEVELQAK

[2] = viability loss in Vero cells – cytotoxicity control for Vif-APOBEC3G degradation inhibitor project, dose response (AID 1117358); format: functional; details: Vero
[3] = molecular target: Tyrosine-protein phosphatase non-receptor type 7 (Homo sapiens, UniProt P35236); format: functional
Chain of Tyrosine-protein phosphatase non-receptor type 7 (P35236 whole entry): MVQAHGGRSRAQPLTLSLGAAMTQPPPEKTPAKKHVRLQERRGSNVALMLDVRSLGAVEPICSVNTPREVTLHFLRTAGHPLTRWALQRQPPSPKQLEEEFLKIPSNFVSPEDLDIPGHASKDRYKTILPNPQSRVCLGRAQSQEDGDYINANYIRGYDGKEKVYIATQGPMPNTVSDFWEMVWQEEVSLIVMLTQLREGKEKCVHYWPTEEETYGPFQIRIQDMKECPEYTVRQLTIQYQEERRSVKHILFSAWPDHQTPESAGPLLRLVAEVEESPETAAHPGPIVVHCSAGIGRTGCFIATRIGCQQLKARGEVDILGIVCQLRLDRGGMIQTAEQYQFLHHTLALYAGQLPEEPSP

[4] = molecular target: T1, Tyrosine-protein phosphatase non-receptor type 22; format: functional; remark: listed apart in the source
Major prion protein = Major prion protein (Homo sapiens, UniProt P04156); format: functional, cell-based
[5] = molecular target: Peroxisome proliferator-activated receptor gamma/Nuclear receptor coactivator 2 (Homo sapiens, UniProt P37231); test: (§1) TR-FRET dose response biochemical High Throughput Screening assay for agonists of the steroid receptor coactivator 2 (SRC-2) recruitment by the peroxisome proliferator-activated receptor gamma (PPAR gamma): non-selective agonists. [Related pubchem assays: 1297, 1032 ]; format: functional
[6] = molecular target: Peroxisome proliferator-activated receptor gamma/Nuclear receptor coactivator 1 (Homo sapiens, UniProt P37231); test: as §1, with “1 (SRC-1)” for “2 (SRC-2)”, “assays (depositor defined):AID1300, AID1808, AID504735, AID631]” for “assays: 1297, 1032 ]”; format: protein assay
Chain of Peroxisome proliferator-activated receptor gamma/Nuclear receptor coactivator 1 (Q15788 whole entry, one chain of several, further chain): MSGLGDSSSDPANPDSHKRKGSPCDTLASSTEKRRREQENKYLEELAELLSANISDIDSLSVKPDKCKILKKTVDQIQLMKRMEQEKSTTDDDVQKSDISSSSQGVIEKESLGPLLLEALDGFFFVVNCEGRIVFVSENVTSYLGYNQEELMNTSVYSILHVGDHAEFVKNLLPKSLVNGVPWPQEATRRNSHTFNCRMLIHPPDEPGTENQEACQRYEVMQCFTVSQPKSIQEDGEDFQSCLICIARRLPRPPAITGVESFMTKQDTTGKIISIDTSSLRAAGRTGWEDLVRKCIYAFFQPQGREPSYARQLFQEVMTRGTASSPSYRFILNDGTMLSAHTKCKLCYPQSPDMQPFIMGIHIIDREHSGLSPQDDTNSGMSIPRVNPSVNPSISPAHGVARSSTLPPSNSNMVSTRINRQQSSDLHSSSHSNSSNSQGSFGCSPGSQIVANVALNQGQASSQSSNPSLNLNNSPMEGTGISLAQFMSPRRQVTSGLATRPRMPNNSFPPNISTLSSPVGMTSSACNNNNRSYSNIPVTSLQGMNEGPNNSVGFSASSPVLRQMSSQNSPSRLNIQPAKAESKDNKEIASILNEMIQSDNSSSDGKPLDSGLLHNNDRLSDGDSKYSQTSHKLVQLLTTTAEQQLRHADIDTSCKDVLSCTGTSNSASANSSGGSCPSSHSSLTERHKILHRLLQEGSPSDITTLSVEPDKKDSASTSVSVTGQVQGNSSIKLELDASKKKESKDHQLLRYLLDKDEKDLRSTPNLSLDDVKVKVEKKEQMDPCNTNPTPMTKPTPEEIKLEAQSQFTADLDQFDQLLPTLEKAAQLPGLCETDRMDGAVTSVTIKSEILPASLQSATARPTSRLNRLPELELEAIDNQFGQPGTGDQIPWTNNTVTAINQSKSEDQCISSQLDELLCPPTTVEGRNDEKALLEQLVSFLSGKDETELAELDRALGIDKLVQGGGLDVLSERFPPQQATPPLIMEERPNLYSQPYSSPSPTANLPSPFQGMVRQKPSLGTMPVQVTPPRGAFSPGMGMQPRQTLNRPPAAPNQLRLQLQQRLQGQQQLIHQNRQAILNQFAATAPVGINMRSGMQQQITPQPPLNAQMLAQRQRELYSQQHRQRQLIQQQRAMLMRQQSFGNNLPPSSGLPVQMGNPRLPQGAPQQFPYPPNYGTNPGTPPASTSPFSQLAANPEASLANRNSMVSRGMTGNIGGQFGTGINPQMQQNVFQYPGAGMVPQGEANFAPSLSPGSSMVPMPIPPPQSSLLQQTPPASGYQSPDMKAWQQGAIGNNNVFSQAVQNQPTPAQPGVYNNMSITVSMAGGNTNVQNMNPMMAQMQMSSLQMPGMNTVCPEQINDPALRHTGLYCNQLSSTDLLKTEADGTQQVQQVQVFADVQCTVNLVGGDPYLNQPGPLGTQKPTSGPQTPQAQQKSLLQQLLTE

[7] = molecular target: Mitogen-activated protein kinase 10 (Homo sapiens, UniProt P53779); test: Dose response biochemical screening assay for inhibitors of c-Jun N-Terminal Kinase 3 (JNK3). [Related pubchem assays: 746 ]
Chain of Mitogen-activated protein kinase 10 (P53779 whole entry): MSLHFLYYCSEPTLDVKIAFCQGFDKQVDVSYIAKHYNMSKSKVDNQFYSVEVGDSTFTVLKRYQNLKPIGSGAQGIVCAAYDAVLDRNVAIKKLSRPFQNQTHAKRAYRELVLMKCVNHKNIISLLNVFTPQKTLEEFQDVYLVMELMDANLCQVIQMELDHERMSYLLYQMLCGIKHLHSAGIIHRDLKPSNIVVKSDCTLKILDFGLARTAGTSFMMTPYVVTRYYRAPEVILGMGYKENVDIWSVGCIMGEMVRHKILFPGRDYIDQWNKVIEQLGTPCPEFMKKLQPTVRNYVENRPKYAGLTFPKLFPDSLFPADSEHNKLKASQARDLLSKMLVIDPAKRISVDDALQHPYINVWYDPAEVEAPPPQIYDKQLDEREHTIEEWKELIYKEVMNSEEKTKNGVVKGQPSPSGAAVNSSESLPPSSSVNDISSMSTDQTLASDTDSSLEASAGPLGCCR

[8] = molecular target: Peroxisome proliferator-activated receptor gamma/Nuclear receptor coactivator 3 (Homo sapiens, UniProt P37231); test: as §1, with “3 (SRC-3)” for “2 (SRC-2)”, “1301 (Confirmation screen.), 1048 (Primary screen.)]” for “1297, 1032 ]”; format: functional
Chain of Peroxisome proliferator-activated receptor gamma/Nuclear receptor coactivator 3 (Q9Y6Q9 whole entry, one chain of several, further chain): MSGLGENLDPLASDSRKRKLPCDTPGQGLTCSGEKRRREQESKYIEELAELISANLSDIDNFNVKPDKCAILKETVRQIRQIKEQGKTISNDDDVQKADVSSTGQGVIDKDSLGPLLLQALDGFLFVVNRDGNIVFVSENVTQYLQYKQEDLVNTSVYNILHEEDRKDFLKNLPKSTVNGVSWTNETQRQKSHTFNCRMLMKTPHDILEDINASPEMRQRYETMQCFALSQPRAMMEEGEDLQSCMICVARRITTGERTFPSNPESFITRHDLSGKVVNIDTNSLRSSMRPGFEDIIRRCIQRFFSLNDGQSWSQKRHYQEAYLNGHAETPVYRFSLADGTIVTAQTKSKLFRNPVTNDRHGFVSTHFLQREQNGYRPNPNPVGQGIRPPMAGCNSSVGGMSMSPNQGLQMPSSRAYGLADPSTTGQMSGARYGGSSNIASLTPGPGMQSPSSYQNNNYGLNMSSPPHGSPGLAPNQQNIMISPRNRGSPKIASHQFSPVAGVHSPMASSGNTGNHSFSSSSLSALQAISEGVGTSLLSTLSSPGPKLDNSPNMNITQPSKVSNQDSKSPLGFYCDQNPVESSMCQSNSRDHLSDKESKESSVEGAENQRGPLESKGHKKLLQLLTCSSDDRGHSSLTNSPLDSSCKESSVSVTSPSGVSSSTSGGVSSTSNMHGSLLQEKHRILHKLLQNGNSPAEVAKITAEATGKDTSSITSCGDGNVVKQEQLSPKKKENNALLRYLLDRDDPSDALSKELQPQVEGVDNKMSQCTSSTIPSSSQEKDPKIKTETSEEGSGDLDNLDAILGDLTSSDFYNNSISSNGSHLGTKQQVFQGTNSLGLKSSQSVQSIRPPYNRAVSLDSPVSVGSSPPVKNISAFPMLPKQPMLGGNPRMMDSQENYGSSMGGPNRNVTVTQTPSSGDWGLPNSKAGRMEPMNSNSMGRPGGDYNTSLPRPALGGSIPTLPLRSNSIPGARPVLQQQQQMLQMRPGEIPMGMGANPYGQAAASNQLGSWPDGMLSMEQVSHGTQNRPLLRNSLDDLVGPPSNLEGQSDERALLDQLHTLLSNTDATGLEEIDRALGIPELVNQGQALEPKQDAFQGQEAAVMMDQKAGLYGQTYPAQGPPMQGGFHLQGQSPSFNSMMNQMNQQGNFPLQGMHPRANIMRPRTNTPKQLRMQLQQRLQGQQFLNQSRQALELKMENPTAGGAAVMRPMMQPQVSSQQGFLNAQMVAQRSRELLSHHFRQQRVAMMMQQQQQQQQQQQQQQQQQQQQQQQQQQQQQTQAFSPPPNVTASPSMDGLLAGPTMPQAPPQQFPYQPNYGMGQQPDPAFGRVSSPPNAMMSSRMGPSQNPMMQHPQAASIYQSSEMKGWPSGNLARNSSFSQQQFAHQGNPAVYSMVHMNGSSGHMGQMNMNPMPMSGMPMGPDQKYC

[9] = molecular target: T3, Peroxisome proliferator-activated receptor gamma (Homo sapiens, UniProt P37231); test: competitive ligand displacement at PPARg – biochemical, fluorescence polarization, PolarScreen, PPARg partial agonist project, dose response (AID 504453)
T3 sequence (P37231 whole entry): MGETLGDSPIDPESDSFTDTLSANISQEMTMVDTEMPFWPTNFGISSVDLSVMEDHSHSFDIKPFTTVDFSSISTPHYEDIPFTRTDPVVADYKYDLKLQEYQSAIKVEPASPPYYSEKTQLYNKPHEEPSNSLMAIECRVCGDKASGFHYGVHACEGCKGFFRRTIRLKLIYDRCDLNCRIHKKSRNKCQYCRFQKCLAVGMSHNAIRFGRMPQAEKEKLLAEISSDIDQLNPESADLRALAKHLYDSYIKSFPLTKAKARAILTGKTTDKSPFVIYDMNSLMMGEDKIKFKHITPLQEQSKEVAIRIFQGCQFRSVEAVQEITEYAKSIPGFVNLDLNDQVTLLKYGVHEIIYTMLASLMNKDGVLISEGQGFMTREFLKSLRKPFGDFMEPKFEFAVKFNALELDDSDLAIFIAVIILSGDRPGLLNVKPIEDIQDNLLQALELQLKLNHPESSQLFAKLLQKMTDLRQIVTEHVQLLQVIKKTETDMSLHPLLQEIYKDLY

Vero = test: viability of Vero cells under compound – cytotoxicity control for flavivirus capping enzyme inhibitors (AID 588742); format: functional; details: Chlorocebus sabaeus
[10] = molecular target: T3, Peroxisome proliferator-activated receptor gamma; test: PPARg transcriptional activation, reporter cells – cell-based, luminescence, assay provider, dose response (AID 504447); format: functional
[11] = molecular target: Peroxisome proliferator-activated receptor alpha (Homo sapiens, UniProt Q07869); test: Late stage assay provider counterscreen for partial agonists of the peroxisome proliferator-activated receptor gamma (PPARg): Luminescence-based cell-based dose response assay for partial agonists of the peroxisome proliferator-activated receptor alpha (PPARA). [Related pubchem assays (depositor defined):AID1051, AID1300, AID1319, AID1679, AID1808, AID504446, AID504447, AID504452, AID504453, AID631]; format: functional
[12] = CCR5-tropic HIV-1 fusion blockers – cell-based, CCR5-tropic Env, dose response (AID 2279); format: functional
[13] = molecular target: T3, Peroxisome proliferator-activated receptor gamma; test: competitive ligand displacement at PPARg – biochemical, TR-FRET, LanthaScreen, PPARg partial agonist project, dose response (AID 504446)
[14] = molecular target: G-protein coupled receptor 55 (Homo sapiens, UniProt Q9Y2T6); test: inhibition of LPI-stimulated GPR55 beta-arrestin translocation – imaging, U2OS, beta-arrestin-GFP, LPI agonist, primary screen (AID 2013); format: functional;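 further: antagonist potency measured as reduced agonist-driven arrestin aggregation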
Chain of G-protein coupled receptor 55 (Q9Y2T6 whole entry): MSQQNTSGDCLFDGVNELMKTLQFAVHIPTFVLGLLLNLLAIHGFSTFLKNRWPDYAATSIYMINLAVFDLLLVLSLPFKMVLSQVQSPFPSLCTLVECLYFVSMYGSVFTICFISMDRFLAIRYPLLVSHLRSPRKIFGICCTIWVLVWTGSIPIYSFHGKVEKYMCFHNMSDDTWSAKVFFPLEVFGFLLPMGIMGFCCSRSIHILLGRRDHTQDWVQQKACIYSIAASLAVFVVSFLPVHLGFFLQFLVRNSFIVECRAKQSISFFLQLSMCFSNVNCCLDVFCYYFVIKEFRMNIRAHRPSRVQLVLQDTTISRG

[15] = Luminescence Cell-Based Dose Retest to Confirm Inhibitors of Cancer Stem Cells. [Related pubchem assays (depositor defined):AID2717, AID2721]; format: functional; details: Homo sapiens
[16] = molecular target: T4, Sphingosine 1-phosphate receptor 4 (Homo sapiens, UniProt O95977); test: Fluorescence dose response cell-based high throughput screening assay for agonists of the Sphingosine 1-Phosphate Receptor 4 (S1P4). [Related pubchem assays: 1509 (Primary screen.), 1523 (Confirmation screen in triplicates.)]; format: functional
T4 sequence (O95977 whole entry): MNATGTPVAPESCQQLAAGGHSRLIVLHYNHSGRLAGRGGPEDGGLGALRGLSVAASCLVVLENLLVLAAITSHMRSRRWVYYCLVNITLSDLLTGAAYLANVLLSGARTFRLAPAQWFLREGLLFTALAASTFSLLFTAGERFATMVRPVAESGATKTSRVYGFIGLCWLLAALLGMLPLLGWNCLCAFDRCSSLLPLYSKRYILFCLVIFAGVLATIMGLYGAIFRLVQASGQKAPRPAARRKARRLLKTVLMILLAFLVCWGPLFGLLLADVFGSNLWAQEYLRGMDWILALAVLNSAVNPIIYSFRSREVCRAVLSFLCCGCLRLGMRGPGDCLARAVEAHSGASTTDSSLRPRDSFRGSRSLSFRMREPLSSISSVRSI

[17] = molecular target: Sphingosine 1-phosphate receptor 1 (Homo sapiens, UniProt P21453); test: Fluorescence-based counterscreen assay for S1P4 agonists: Cell-based dose response high throughput screening assay to identify agonists of the Sphingosine 1-Phosphate Receptor 1 (S1P1). [Related pubchem assays (depositor defined):AID1509, AID1523, AID1801, AID463107, AID463118, AID463119, AID463122, AID463123, AID463129, AID463225, AID504400, AID504460]; format: functional
Chain of Sphingosine 1-phosphate receptor 1 (P21453 whole entry): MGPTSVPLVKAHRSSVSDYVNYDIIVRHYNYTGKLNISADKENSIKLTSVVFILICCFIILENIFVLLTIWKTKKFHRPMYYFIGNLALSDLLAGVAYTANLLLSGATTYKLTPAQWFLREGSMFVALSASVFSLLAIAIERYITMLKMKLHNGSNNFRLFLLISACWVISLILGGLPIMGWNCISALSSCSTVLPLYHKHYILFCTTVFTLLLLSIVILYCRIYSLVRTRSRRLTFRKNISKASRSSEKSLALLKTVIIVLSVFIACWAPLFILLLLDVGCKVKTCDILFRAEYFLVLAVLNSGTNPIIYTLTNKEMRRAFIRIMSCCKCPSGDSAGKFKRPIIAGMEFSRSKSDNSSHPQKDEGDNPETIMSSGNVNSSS

[18] = molecular target: Kappa-type opioid receptor (Homo sapiens, UniProt P41145); test: SAR analysis of small molecule agonists of the kappa opioid receptor via a luminescent beta-arrestin assay - Set 3. [Related pubchem assays (depositor defined):AID1777, AID1785, AID1786, AID1966, AID2133, AID2136, AID2284, AID2500]; format: functional
Chain of Kappa-type opioid receptor (P41145 whole entry): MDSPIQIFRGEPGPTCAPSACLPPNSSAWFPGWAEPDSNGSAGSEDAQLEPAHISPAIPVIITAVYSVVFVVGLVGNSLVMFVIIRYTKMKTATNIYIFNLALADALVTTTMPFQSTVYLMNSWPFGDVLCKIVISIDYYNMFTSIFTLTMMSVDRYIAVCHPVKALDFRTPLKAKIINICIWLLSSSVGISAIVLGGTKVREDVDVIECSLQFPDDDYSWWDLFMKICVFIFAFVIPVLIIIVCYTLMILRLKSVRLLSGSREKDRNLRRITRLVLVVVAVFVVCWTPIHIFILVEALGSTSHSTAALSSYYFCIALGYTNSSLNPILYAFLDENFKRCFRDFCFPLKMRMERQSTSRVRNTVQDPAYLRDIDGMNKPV
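Wherever AC50 is given: cells exposed to compound for roughly 70 hours or longer before luminescence read.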

In the case of `O=C(O)CCCNc1cc(N2CCC3(CC2)OCCO3)c2noc3c2c1C(=O)c1ccccc1-3`, the IC50 [1] is reported as 68.9 µM (active), the Ki (fMet-Leu-Phe receptor) is reported as 34.1 µM (inactive) and the CC50 [2] is reported as > 40 µM (active). For the same compound, the IC50 [3] was 69.3 µM (active) and the IC50 [4] was 61.9 µM (active).
With `CC(Sc1ccc2ccccc2n1)C(=O)O` (configuration not stated) the IC50 (Major prion protein) was 1.56 µM (active), the EC50 [5] was > 79.4 µM (not active) and the IC50 (cells) was > 138 µM (inactive). The EC50 [6] was > 79.4 µM (inactive), the IC50 [7] was 4.87 µM (active) and the EC50 [8] was > 79.4 µM (not active).
For `COc1ccc(-c2nn(-c3ccccc3)cc2/C=C2/SC(=S)N(CCC(=O)O)C2=O)c(C)c1`, the IC50 [9] was 0.152 µM (active), the CC50 (Vero) was > 40 µM (active) and the EC50 [10] was 0.283 µM (active). The EC50 [11] was > 3 µM (inactive), the IC50 [12] was 47.4 µM (active) and the IC50 [13] was 0.194 µM (active). For the same compound, the IC50 [14] was 0.665 µM (active) and the AC50 [15] was 9.19 µM (active).
With `Clc1ccc(/C=C\c2[nH]ccc3c4ccccc4nc2-3)cc1` the EC50 [16] was 4.41 µM (active) and the EC50 [17] was 2.18 µM (active).
In the case of `FC(F)(F)c1cc(CSc2nnc(-c3ccccn3)n2Cc2ccccc2Cl)ccc1Cl`, the EC50 [18] is reported as 4.3 µM (active).
